Source: patent US10882882B2, “Post fermented tea-derived kaempferol-based compound” (AMOREPACIFIC CORPORATION, priority 2016, dated 2021)

Biological target: T1, beta amyloid (Aβ1-42) (Homo sapiens, UniProt P05067)
T1 construct: beta amyloid (Aβ1-42, AnaSpec Inc, USA); purchased AnaSpec Inc, USA
Experiment: Inhibition of beta amyloid aggregation, fluorescence analysis (ThioflavinT assay)
Type: biochemical
Conditions: for Increased RFU (% of Pos. Cont.): Pos. Cont. (beta amyloid only) = 100; for inhibition of beta amyloid aggregation as compared with the positive control group: positive control (only beta amyloid, no compound) taken as 100%
Procedure: The effect of kaempferol3-O-[2-O″-(E)-p-coumaroyl][beta-D-glucopyranosyl-(1→3)-O-alpha-L-rhamnopyranosyl-(1→6)-O-beta-D-glucopyranoside] on inhibition of beta amyloid aggregation was confirmed by the fluorescence analysis (ThioflavinT assay). Specifically, beta amyloid (Aβ1-42, AnaSpec Inc, USA) was obtained and used at a concentration of 0.1 mg/ml and stored at −80° C. before use. Morin (20 μM), phenol red (20 μM), and kaempferol3-O-[2-O″-(E)-p-coumaroyl][beta-D-glucopyranosyl-(1→3)-O-alpha-L-rhamnopyranosyl-(1→6)-O-beta-D-glucopyranoside] (1 mg/ml) were respectively diluted with DMSO so as to be adjusted to the concentrations. In order to specify the degree of inhibition of Aβ1-42 aggregation, each of the compounds prepared at the above concentrations was diluted with 50 μL of 0.01 M sodium phosphate buffer solution to have a concentration of 10 μM, then 40 μL of 0.1 mg/ml of Aβ1-42 was added thereto, and then 10 μl of 2 mM thioflavinT was added thereto, and fluorescence was measured using a fluorescence spectrometer (RF-5300PC, SHIMADZU CORPORATION, Japan) at 37° C. for 150 minutes at intervals of 5 minutes. In the above table, “RFU” denotes the relative fluorescence unit, and “Increased RFU” denotes the amount of aggregated beta amyloid, and “Increased RFU (% of Pos.Cont.)” denotes the percentage value of the amount of aggregated beta amyloid with respect to that of the positive control group. “Novel substance 33” denotes kaempferol3-O-[2-O″-(E)-p-coumaroyl][beta-D-glucopyranosyl-(1→3)-O-alpha-L-rhamnopyranosyl-(1→6)-O-beta-D-glucopyranoside].

[1] = compound 10 μM, Aβ1-42 0.1 mg/ml, 37° C., 150 minutes

T1 sequence (P05067 672-713 limits assumed): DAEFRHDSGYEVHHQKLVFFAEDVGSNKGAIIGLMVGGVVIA

Increased RFU (% of Pos. Cont.) [1] | Increased RFU (amount of aggregated beta amyloid) (compound 10 μM, Aβ1-42 0.1 mg/ml, thioflavinT, 37° C., 150 minutes) | inhibition of beta amyloid aggregation as compared with the positive control group | SMILES
78.6% | 11471 RFU | 21.4% | O=c1c(O)c(-c2ccc(O)cc2O)oc2cc(O)cc(O)c12 [Morin]
93.6% | – | 6.4% | O=S1(=O)OC(c2ccc(O)cc2)(c2ccc(O)cc2)c2ccccc21 [Phenol Red]
